Data from ChEMBL document CHEMBL5230145, “Bifunctional μ opioid and σ1 receptor ligands as novel analgesics with reduced side effects” (Eur J Med Chem, 2021).

Experiments:
[1] = Toxicity in ig dosed Sprague-Dawley rat; type: organism-based; details: in vivo, po
[2] = Therapeutic index, ratio of LD50 for toxicity in ig dosed Sprague-Dawley rat to ED50 for analgesic activity in ig dosed Sprague-Dawley rat; type: organism-based; details: in vivo, po, read-out: Ratio LD50/ED50
Rattus norvegicus = assay: Analgesic activity in ig dosed formalin-induced pain Sprague-Dawley rat model; type: functional; details: po
Mu-type opioid receptor [3] = biological target: T1, Mu-type opioid receptor (Homo sapiens, UniProt P35372); assay: Displacement of [3H]-DAMGO from human mu opioid receptor expressed in CHO-K1 cells membrane incubated for 60 mins by MicroBeta scintillation counter assay; type: cell membranes
[4] = biological target: Sigma non-opioid intracellular receptor 1 (Homo sapiens, UniProt Q99720); assay: Displacement of [3H](+)-pentazocine from human sigma 1 receptor expressed in HEK293 cells membrane incubated for 120 mins by MicroBeta scintillation counter assay; type: cell membranes
[5] = Toxicity in ip dosed rodent; type: organism-based; details: rodentia, in vivo
Rodentia sp. = assay: Analgesic activity in ip dosed formalin-induced pain rodent model; type: functional
[6] = Therapeutic index, ratio of LD50 for toxicity in ip dosed rodent to ED50 for analgesic activity in ip dosed rodent; type: organism-based; details: rodentia, in vivo, read-out: Ratio LD50/ED50
[7] = Metabolic stability in mini-pig liver microsomes assessed as compound remaining after 1 hr; type: ADME, Sus scrofa domesticus, Microsome; details: read-out: Stability
Mus musculus = assay: Antiallodynic activity in ip dosed MIA induced mechanical allodynia mouse model; type: functional
Mu-type opioid receptor [8] = biological target: T1, Mu-type opioid receptor; assay: Binding affinity to mu opioid receptor (unknown origin) assessed as inhibition constant in presence of Levorphanol

T1 sequence (P35372 whole entry): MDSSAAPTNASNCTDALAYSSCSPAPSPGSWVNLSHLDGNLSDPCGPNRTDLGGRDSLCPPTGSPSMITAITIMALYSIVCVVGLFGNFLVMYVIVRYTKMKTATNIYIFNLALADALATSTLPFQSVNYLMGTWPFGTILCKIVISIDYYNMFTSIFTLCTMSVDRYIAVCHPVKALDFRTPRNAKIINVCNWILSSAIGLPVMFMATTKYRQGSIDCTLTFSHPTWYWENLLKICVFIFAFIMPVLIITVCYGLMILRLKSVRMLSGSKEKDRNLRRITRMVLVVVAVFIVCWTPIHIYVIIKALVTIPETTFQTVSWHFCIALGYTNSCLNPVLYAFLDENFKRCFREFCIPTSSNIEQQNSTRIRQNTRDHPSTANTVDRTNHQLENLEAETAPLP
Chain of Sigma non-opioid intracellular receptor 1 (Q99720 whole entry): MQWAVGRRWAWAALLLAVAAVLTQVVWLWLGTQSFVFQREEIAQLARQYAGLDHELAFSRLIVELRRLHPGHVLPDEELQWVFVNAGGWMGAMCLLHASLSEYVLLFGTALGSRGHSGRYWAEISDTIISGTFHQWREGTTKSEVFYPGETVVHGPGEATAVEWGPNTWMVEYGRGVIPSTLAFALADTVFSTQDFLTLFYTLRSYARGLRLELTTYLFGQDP

| Compound | Ki (Mu-type opioid receptor [3]) [µM] | Ki [4] [µM] | also measured |
| --- | --- | --- | --- |
| Clc1ccc(-c2noc(CCCCN3CCCCC3)n2)c(Cl)c1 | – | – | LD50 [1]: 957 mg/kg; selectivity ratio [2]: 18.2; ED50 (Rattus norvegicus): 52.5 mg/kg |
| CCN1CC2(CCN(CCc3ccccc3)CC2)c2ccccc2C1=O | 0.1 | 0.1 | – |
| CCC(=O)N(CCN1CCC(N(C)Cc2ccccc2)C1)c1ccccc1 (stereo unspecified) | – | 0.1 | – |
| Oc1cccc(C2CCN(Cc3cn(-c4ccccc4)nn3)CC2)c1 | < 0.1 | < 0.1 | – |
| COc1ccc2c(c1)CCN(C)C21CCN(CCc2ccccc2)CC1 | < 0.1 | < 0.1 | – |
| CCOCCN1CCCCC(CC)(c2cccc(O)c2)C1 (stereo unspecified) | < 0.1 | < 0.1 | – |
| Cc1cc(OCCN2CCOCC2)nn1-c1ccc2ccccc2c1 | – | – | LD50 [5]: 397 mg/kg; ED50 (Rodentia sp.): 33.2 mg/kg; selectivity ratio [6]: 12 |
| CN1CCc2ccccc2C12CCN(CCc1ccccc1)CC2 | < 0.1 | < 0.1 | – |
| [2H]C([2H])([2H])C([2H])([2H])N1CC2(CCN(C([2H])([2H])C([2H])([2H])c3cc(F)ccc3F)CC2)O[C@H](C)C1=O | – | – | remaining at 1 h [7]: 64% |
| CCC(=O)N(CC1(N2CCN(CC(C)C)CC2)CCOCC1)c1cccc(C(F)(F)F)n1 | – | – | ED50 (Mus musculus): 31.9 mg/kg |
| O=C(c1ccccn1)C1(N2CCN(Cc3ccccc3)CC2)CCOC2(CCCC2)C1 (stereo unspecified) | < 0.1 | < 0.1 | – |
| CN(CCOC(c1cccs1)c1ccnn1C)Cc1ccccc1 (stereo unspecified) | < 0.1 | < 0.1 | – |
| C[C@@H]1[C@@H]2Cc3ccc(O)cc3[C@]1(C)CCN2CCc1ccccc1 | – | – | Ki (Mu-type opioid receptor [8]): 0.055 µM |
| CC(C)S(=O)(=O)Nc1cccc(N2CCN(Cc3cn(-c4ccccc4F)nn3)CC2)c1 | < 0.1 | < 0.1 | – |
| C[C@H]1[C@H]2Cc3ccc(O)cc3[C@@]1(C)CCN2CCc1ccccc1 | – | – | Ki (Mu-type opioid receptor [8]): 0.0002 µM |
| CN(CCOC(c1cccs1)c1ccnn1C)CCc1ccccc1 (stereo unspecified) | < 0.1 | < 0.1 | – |
| CC(C)S(=O)(=O)Nc1cccc(N2CCN(Cc3cn(-c4ccccc4)nn3)CC2)c1 | < 0.1 | < 0.1 | – |
| CN1CC2(CCN(CCc3ccccc3)CC2)c2ccccc2C1=O | 0.1 | 0.1 | – |
| O=C(c1cccc(C(F)(F)F)n1)C1(N2CCN(Cc3ccccc3)CC2)CCOC2(CCCC2)C1 (stereo unspecified) | < 0.1 | < 0.1 | – |
| CC(C)S(=O)(=O)Nc1cccc(C2CCN(Cc3cn(-c4ccccc4)nn3)CC2)c1 | < 0.1 | < 0.1 | – |
| O=C(c1ccccc1)C1(N2CCN(Cc3ccccc3)CC2)CCOC2(CCCC2)C1 (stereo unspecified) | < 0.1 | < 0.1 | – |
| CC(=O)Oc1cccc(C2CCN(Cc3cn(-c4ccccc4)nn3)CC2)c1 | < 0.1 | < 0.1 | – |
